The values below come from patent US5721213A, “Peptides, active as inhibitors of platelet aggregation” (Nippon Steel Corporation, priority 1993, dated 1998).

Data set [1] relates to platelets activated by ADP. As to conditions: 400 μM; cited from earlier work.
Data set [2] deals with mouse. Put plainly: acute toxicity test. The class given is in vivo. The conditions noted are these: intravenously injected, 100 mg/Kg.
Data set [3] deals with platelet aggregation. As to conditions: times as strong as RGDS; cited from earlier work.

Non-standard residues stand in square brackets, D forms with d. Residues, ends and D or L forms follow the SMILES beside them. Sar = CNCC(=O)O

Regarding “glycine-arginine-glycine-aspartic acid-serine-proline [GRGDSP]”, in data set [1], the “inhibition of aggregation of platelets activated by ADP” value was “completely inhibited”.
On to `C[C@H](NC(=O)[C@H](CO)NC(=O)[C@@H]1CCCN1)C(=O)N(C)CC(=O)N[C@@H](CC(=O)O)C(=O)N[C@@H](Cc1c[nH]c2ccccc12)C(=O)O` [Example 1, Pro-Ser-Ala-Sar-Asp-Trp-OH] (H-PSA[Sar]DW-OH), for which the acute toxicity result in data set [2] was “no toxicity was observed”.
Turning to “arginine-glycine-aspartic acid-phenylalanine [RGDF]”, in data set [3], the “platelet aggregation-inhibiting activity relative to RGDS” value is recorded as 4-5 times.
